Legend:
Type in all cases: cell-based
RKO cells = assay: In vitro killing of tumor cells by T cells (NK-92) with CBD, crystal violet; conditions: CBD 5, 10, 20 μM 12 h, then NK-92 cells 1:500, 24 h; vs control
Procedure: RKO cells in the logarithmic growth phase were inoculated into a 12-well plate at a density of 5×10^4 cells/mL and placed in a 5% CO2 incubator for growth adhering to a wall overnight. The supernatant was removed, CBD at different concentrations (0 μM, 5 μM, 10 μM, and 20 μM) was added, and the cells were coincubated for 12 h. NK-92 cells (T cells) were added at 1:500, the cells were cultured for 24 h, and a control group without the NK-92 cells was set at the same time. The supernatant was removed, PBS was used for washing 2 times, and 4% paraformaldehyde was added to fix the cells. Then, PBS was used for washing 2 times, crystal violet was added for dyeing for 30 min, and finally, redundant crystal violet was washed away with PBS, and photographing was performed to collect the data.

[1] = test system: PD-L1 in H1975 lung cancer cells; assay: PD-L1 expression by Western blotting; conditions: concentration-dependent at 5, 10, 20 μM, 24 h
Procedure: (§1) Different types of well-grown tumor cells (RKO colorectal cancer cells, H1975 lung cancer cells, and A549 lung cancer cells) with a density of 80% or more were respectively spread on a 6-well plate at a density of 5×10^4 cells/well, the volume of the suspension in each well was 2 mL, and the cells were subsequently placed in an incubator at 37° C. for culture. […] After the cells were continuously cultured for 24 h, the culture was terminated, and subsequent detection was conducted.
(§2) After the culture was terminated, the cells were collected and washed with cold PBS 2 times. After the PBS residue was removed, a proper amount of cell lysate was added for cracking, and the cells were incubated on ice for 15 min and then centrifuged on a 4° C. centrifuge at 12,000 rpm for 15 min. The supernatant was carefully aspirated, the protein concentration was measured via the BCA method, a corresponding amount of loading buffer was added, the cells were evenly shaken and incubated in a 100° C. water bath for 10 min, and finally, the sample was subjected to a protein immunoblotting experiment.

[2] = test system: PD-L1 in RKO colorectal cancer cells; assay: PD-L1 expression by Western blotting; conditions: concentration-dependent at 5, 10, 20 μM, 24 h
Procedure: as §1, §2

[3] = test system: PD-L1 in A549 lung cancer cells; assay: PD-L1 expression by Western blotting; conditions: concentration-dependent at 5, 10, 20 μM, 24 h
Procedure: as §1, §2

[4] = test system: RKO colorectal cancer cells; assay: EdU proliferation of tumor cells treated with CBD; conditions: CBD 5, 10, 20 μM, 24 h
Procedure: (§3) Different types of tumor cells (RKO colorectal cancer cells, H1975 lung cancer cells, and A549 lung cancer cells) in the logarithmic growth phase were respectively inoculated into a 96-well plate at an inoculum density of 5×10^3 per well, and then, the tumor cells were placed into an incubator at 37° C. and 5% CO2 for incubation for 24 h; a CBD mother solution (10 mM) was respectively diluted with culture medium to 5 μM, 10 μM, or 20 μM, and the culture medium in the 96-well plate was aspirated off, 100 μL of culture medium containing different concentrations of CBD was added to each well, a control well (0 μM CBD) was set, and the cells were continuously incubated for 24 h. After the culture was completed, the quantity of proliferating tumor cells was detected with an EdU kit (Beyotime, C0085S). Finally, a high-content imaging analysis system was used for photographing and the data were counted.

H1975 lung cancer cells = assay: EdU proliferation of tumor cells treated with CBD; conditions: CBD 5, 10, 20 μM, 24 h
Procedure: as §3

A549 lung cancer cells = assay: EdU proliferation of tumor cells treated with CBD; conditions: CBD 5, 10, 20 μM, 24 h
Procedure: as §3

Which “viability of RKO cells in CBD+T cells coculture” value (RKO cells) does the source give for `C=C(C)[C@@H]1CCC(C)=C[C@H]1c1c(O)cc(CCCCC)cc1O` [CBD, cannabidiol] here?
Its value is “significantly reduced the viability of RKO cells”.

What about the “expression of PD-L1 (Western blotting)” value [1] of the same compound?
The value was “significantly inhibited the expression of PD-L1”.

What about the “expression of PD-L1 (Western blotting)” value [2] of the same compound?
Its value is “significantly inhibited the expression of PD-L1”.

And the “expression of PD-L1 (Western blotting)” value [3]?
The value was “significantly inhibited the expression of PD-L1”.

What about the “toxicity to tumor cells (proliferation, EdU fluorescence intensity)” value (“toxicity to tumor cells” for short) [4] of the same compound?
The value was “not significantly toxic”.

And the “toxicity to tumor cells” value (H1975 lung cancer cells)?
Its value is “not significantly toxic”.

What about the “toxicity to tumor cells” value (A549 lung cancer cells) of the same compound?
The value was “not significantly toxic”.

Source: patent US12599596B2, “Anti-tumor pharmaceutical composition based on immune checkpoint blockade and use thereof” (Shanghai Hui Tian Jin Ze Biotech Co., Ltd., priority 2023, dated 2026)
